Target: T1, cardiac voltage-gated sodium channel (NaV1.5) (Homo sapiens, UniProt Q14524)
T1 construct: gene SCN5A; human NaV1.5 channels stably expressed in HEK-293 cells, without β-subunits
Experiment: whole-cell patch clamp, peak NaV1.[…] current at −[…] mV, HEK-293 cells
Assay type: cell-based

T1 sequence (Q14524 whole entry): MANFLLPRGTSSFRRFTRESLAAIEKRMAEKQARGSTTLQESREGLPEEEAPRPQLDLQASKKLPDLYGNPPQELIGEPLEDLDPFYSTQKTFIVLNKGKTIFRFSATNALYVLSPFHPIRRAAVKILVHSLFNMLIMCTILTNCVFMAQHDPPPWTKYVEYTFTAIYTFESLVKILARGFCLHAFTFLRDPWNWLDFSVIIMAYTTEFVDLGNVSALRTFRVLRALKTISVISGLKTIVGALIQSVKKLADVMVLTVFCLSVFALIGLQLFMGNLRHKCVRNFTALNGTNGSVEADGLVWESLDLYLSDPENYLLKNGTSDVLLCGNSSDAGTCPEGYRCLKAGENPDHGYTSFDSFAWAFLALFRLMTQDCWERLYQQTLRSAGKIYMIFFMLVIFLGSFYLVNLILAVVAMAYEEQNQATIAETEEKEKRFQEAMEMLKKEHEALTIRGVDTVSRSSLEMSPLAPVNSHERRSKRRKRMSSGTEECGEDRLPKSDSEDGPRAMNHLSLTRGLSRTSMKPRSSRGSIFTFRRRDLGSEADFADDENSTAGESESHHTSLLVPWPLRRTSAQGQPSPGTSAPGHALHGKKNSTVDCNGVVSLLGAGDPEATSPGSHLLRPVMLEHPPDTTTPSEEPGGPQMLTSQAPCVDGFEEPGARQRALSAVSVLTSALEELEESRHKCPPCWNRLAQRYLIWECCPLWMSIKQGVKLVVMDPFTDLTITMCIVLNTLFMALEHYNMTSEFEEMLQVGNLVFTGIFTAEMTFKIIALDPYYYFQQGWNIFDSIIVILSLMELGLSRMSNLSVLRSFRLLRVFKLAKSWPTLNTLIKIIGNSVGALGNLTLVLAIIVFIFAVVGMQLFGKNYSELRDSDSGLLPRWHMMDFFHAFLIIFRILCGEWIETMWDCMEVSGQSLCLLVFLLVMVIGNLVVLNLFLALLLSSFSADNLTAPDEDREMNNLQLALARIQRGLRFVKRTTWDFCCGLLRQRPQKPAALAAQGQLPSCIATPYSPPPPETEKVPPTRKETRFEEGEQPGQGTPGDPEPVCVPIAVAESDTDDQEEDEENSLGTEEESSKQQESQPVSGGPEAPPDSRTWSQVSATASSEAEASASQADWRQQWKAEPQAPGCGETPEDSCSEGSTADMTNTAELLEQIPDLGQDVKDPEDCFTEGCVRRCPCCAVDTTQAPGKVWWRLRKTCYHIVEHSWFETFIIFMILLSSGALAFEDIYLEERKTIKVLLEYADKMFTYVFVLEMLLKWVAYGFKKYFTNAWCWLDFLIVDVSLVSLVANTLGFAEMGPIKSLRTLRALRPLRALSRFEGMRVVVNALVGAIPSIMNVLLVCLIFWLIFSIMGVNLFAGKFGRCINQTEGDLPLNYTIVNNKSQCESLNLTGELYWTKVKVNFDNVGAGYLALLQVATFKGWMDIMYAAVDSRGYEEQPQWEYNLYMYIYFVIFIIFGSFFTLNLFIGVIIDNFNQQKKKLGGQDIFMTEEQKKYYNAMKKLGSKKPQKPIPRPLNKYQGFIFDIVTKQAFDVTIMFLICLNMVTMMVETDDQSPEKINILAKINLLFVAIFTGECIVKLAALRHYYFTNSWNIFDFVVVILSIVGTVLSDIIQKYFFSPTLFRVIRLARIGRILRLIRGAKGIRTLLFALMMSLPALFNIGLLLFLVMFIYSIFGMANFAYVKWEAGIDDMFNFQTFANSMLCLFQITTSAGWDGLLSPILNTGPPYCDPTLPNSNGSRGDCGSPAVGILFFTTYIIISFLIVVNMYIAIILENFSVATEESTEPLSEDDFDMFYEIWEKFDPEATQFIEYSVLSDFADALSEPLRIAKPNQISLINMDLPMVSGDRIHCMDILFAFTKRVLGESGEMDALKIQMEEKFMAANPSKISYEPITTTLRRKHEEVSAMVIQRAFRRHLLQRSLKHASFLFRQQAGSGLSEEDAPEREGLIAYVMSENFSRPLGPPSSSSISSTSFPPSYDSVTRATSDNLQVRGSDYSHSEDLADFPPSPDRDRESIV

Q: Which IC50 does the source give for Fc1ccc([C@@H]2CCNC[C@H]2COc2ccc3c(c2)OCO3)cc1 [paroxetine] here?
A: 6.8 ± 1.1 µM
